What was measured:
glioblastoma tumour = assay: Treatment of the glioblastoma patient; type: in vivo, human
Procedure: The patient was treated with BCNU and the tumour was regressing within 2 weeks after the first administration of the drug.

[1] = tested on: Glioblastoma multiforme 3D aggregates; assay: CellTiter-Glo 3D Cell Viability Assay, glioblastoma drug sensitivity test; type: cell-based, human; conditions: BCNU 0.3, 0.03, 0.003 mg/ml, FIGS. 3 & 4
Procedure: Toxicology assay: CellTiter-Glo® 3D Cell Viability Assay (Promega). The CellTiter-Glo® 3D Cell Viability Assay is a homogeneous, luminescent method to determine the number of viable cells in 3D cell culture based on quantitation of the ATP present, which is a marker for the presence of metabolically active cells.
Aggregates were prepared in 96-well plates and cultures were incubated with the following agents: cisplatin, erlotinib, vinorelbine, and pemetrexed. […] Following 24, 48 h or 72 h incubation, cells were labelled using Annexin V-PI and analyzed by flow cytometry or analysed by Promega CellTiter-Glo® 3D Cell Viability Assay Kit (Luminescent) (ATP detection kit)(FIGS. 3 & 4).

[2] = tested on: Glioblastoma multiforme 3D aggregates (Glioblastoma 1); assay: Annexin V-PI flow cytometry of drug-treated Glioblastoma 1 3D aggregates; type: cell-based, human
Procedure: Two, freshly resected, native samples reached the laboratory directly from the pathologist within 2 hours of surgery. The two samples were treated separately and were labelled as “Glioblastoma 1” and “Glioblastoma 2”. […] The samples were processed according to protocol and drug sensitivity tests were performed using the viable, Sample 1. Samples for DNA and RNA isolation were also stored at −80° C., leaving the opportunity open for additional sequencing or comparative gene expression studies. Traditional out-growth cultures were also prepared from Glioblastoma sample 1 showing the strong viability and proliferative ability of the cells (FIG. 1.). Annexin: Annexin V is used as a non-quantitative probe to detect cells that express phosphatidylserine (PS) on their cell surface, an event found in apoptosis as well as other forms of cell death. The assay combines annexin V staining of PS and PE membrane events with the staining of DNA in the cell nucleus with propidium iodide (PI) or 7-Aminoactinomycin D (AAD-7), distinguishing viable cells from apoptotic cells and necrotic cells. Detection was performed by flow cytometry or a fluorescence microscope. […] Erbitux (Cetuximab): 4.8 mg/ml; […] Erlotinib similarly to Cetuximab is an EGFR inhibitor (the two drugs are frequently used clinically together).

O=NN(CCCl)C(=O)NCCCl [BCNU, Carmustine]
time to tumour regressing after the first administration of the drug (glioblastoma tumour): ≤ 2 weeks | sensitivity of the glioblastoma cells [1]: clearly confirmed sensitivity

N.N.[Cl][Pt][Cl] [Cisplatin]
Annexin Pl++ Late apoptosis ([2]; 9 μg/m1): 0.19% | Pl+ ratio within Annexin+ Non-viable ([2]; 9 μg/m1): 0.44%

C#Cc1cccc(Nc2ncnc3cc(OCCOC)c(OCCOC)cc23)c1 [Erlotinib]
Annexin Pl++ Late apoptosis ([2]; 1 μM): 0.32% | Pl+ ratio within Annexin+ Non-viable ([2]; 1 μM): 0.62%

Nc1nc2[nH]cc(CCc3ccc(C(=O)N[C@@H](CCC(=O)O)C(=O)O)cc3)c2c(=O)[nH]1 [Pemetrexed]
Annexin Pl++ Late apoptosis ([2]; 1 μM): 0.19% | Pl+ ratio within Annexin+ Non-viable ([2]; 1 μM): 0.37%

CCC1=C[C@@H]2CN(C1)Cc1c([nH]c3ccccc13)[C@@](C(=O)OC)(c1cc3c(cc1OC)N(C)[C@H]1[C@@](O)(C(=O)OC)[C@H](OC(C)=O)[C@]4(CC)C=CCN5CC[C@]31[C@@H]54)C2 [Vinorelbine]
Annexin Pl++ Late apoptosis ([2]; 20 nM): 0.49% | Pl+ ratio within Annexin+ Non-viable ([2]; 20 nM): 0.93% | Annexin Pl++ Late apoptosis ([2]; 50 nM): 0.05% | Pl+ ratio within Annexin+ Non-viable ([2]; 50 nM): 0.09%

Source: patent US20190128870A1, “Diagnostic Methods For Patient Specific Therapeutic Decision Making In Cancer Care” (Humeltis, priority 2016, published 2019)
